Consider 31 compounds from patent publication US20250195530A1, “POLQ INHIBITORS” (ASTRAZENECA AB, priority 2022, published 2025).

Structures are written as SMILES.

The subject of the first assay is DLD-1 BRCA2−/− cells. The assay is described as follows: Homologous recombination synthetic lethal inhibition of proliferation, DLD-1 BRCA2-/- (Cell Titre Glo 3D). The following applies: Homo sapiens, DLD-1, DLD-1 BRCA2 −/− cells; mean; read-out: POLQ PD Prolif Lumin BRCA2 −/− mean pIC50 (converted). It counts as cell-based. In short, it runs like this:
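Luminescent Cell Titre Glo 3D readout, taken on day 12 for homologous-recombination-deficient DLD-1 BRCA2−/− and day 7 for the wild-type control, after compound refresh on day 6. Compounds spanned 10 μM to 0.51 nM in three-fold steps; IC50 defined as 50% reduction of average maximum signal.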
On to `Cc1ccnc(Cn2c(-c3ccc(C(=O)NCC(F)(F)F)cc3Cl)nc3c(OC4(C)CC4)ncnc32)c1` [Example T86, 3-chloro-4-(6-(1-methylcyclopropoxy)-9-((4-methylpyridin-2-yl)methyl)-9H-purin-8-yl)-N-(2,2,2-trifluoroethyl)benzamide], for which the IC50 was 501 nM.
Turning to `CC1(Oc2ncnc3c2nc(-c2ccc(OCCC(=O)O)cc2Cl)n3Cc2ccccc2Cl)CC1` [Example T88, 3-(3-chloro-4-(9-(2-chlorobenzyl)-6-(1-methylcyclopropoxy)-9H-purin-8-yl)phenoxy)propanoic acid], the IC50 was 794 nM.
Turning to `C[C@H](Oc1cccc(-c2nc3c(OC4(C)CC4)ncnc3n2Cc2cccc(Cl)c2)c1Cl)C(=O)O` [Example T90, (S)-2-(2-chloro-3-(9-(3-chlorobenzyl)-6-(1-methylcyclopropoxy)-9H-purin-8-yl)phenoxy)propanoic acid], the IC50 is 2000 nM.
Still for that read-out and setting: in the case of `Cc1ccnc(Cn2c(-c3ccc(C(=O)NCC(F)F)cc3Cl)nc3c(OC4(C)CC4)ncnc32)c1` [Example T93, 3-chloro-N-(2,2-difluoroethyl)-4-(6-(1-methylcyclopropoxy)-9-((4-methylpyridin-2-yl)methyl)-9H-purin-8-yl)benzamide] it was 316 nM; in that of `CC1(Oc2ncnc3c2nc(-c2ccc(OCCCO)cc2Cl)n3Cc2cc(C(F)(F)F)ccn2)CC1` [Example T94, 3-(3-chloro-4-(6-(1-methylcyclopropoxy)-9-((4-(trifluoromethyl)pyridin-2-yl)methyl)-9H-purin-8-yl)phenoxy)propan-1-ol], 200 nM; in that of `Cc1ccnc(Cn2c(-c3ccc(N4CCC4=O)cc3Cl)nc3c(OC4(C)CC4)ncnc32)c1` [Example T95, 1-(3-chloro-4-(6-(1-methylcyclopropoxy)-9-((4-methylpyridin-2-yl)methyl)-9H-purin-8-yl)phenyl)azetidin-2-one], 200 nM.
The same measure, in the same setting: in the case of `Cc1ccnc(Cn2c(-c3ccc(N4CCOC4=O)cc3Cl)nc3c(OC4(C)CC4)ncnc32)c1` [Example T96, 3-(3-chloro-4-(6-(1-methylcyclopropoxy)-9-((4-methylpyridin-2-yl)methyl)-9H-purin-8-yl)phenyl)oxazolidin-2-one] it was 100 nM; in that of `CC1(Oc2ncnc3c2nc(-c2ccc(NCCC(=O)O)cc2Cl)n3Cc2cccc(Cl)c2)CC1` [Example T97, 3-((3-chloro-4-(9-(3-chlorobenzyl)-6-(1-methylcyclopropoxy)-9H-purin-8-yl)phenyl)amino)propanoic acid], 1260 nM.
Same read-out and setting: in the case of `Cc1ccnc(Cn2c(-c3ccc(OCC(F)(F)CO)cc3Cl)nc3c(OC4(C)CC4)ncnc32)c1` [Example T98, 3-(3-chloro-4-(6-(1-methylcyclopropoxy)-9-((4-methylpyridin-2-yl)methyl)-9H-purin-8-yl)phenoxy)-2,2-difluoropropan-1-ol] it was 100 nM.
With `Cc1cccc(Cn2c(-c3ccc(CC(N)=O)cc3Cl)nc3c(OC4(C)CC4)ncnc32)c1` [Example T99, 2-(3-chloro-4-(9-(3-methylbenzyl)-6-(1-methylcyclopropoxy)-9H-purin-8-yl)phenyl)acetamide], the IC50 was 79.4 nM.
On the same count and under the same terms, in the case of `Cc1ccc(Cn2c(-c3ccc(CC(N)=O)cc3Cl)nc3c(OC4(C)CC4)ncnc32)cc1` [Example T100, 2-(3-chloro-4-(9-(4-methylbenzyl)-6-(1-methylcyclopropoxy)-9H-purin-8-yl)phenyl)acetamide] it was 794 nM; in that of `Cc1ccccc1Cn1c(-c2ccc(CC(N)=O)cc2Cl)nc2c(OC3(C)CC3)ncnc21` [Example T101, 2-(3-chloro-4-(9-(2-methylbenzyl)-6-(1-methylcyclopropoxy)-9H-purin-8-yl)phenyl)acetamide], 501 nM; in that of `CC1(Oc2ncnc3c2nc(-c2ccc(CC(N)=O)cc2Cl)n3CCc2ccccc2)CC1` [Example T102, 2-(3-chloro-4-(6-(1-methylcyclopropoxy)-9-phenethyl-9H-purin-8-yl)phenyl)acetamide], 1580 nM.
For the compound `Cc1ccnc(Cn2c(-c3ccc(OC4COC4)cc3Cl)nc3c(OC4(C)CC4)ncnc32)c1` [Example T103, 8-(2-chloro-4-(oxetan-3-yloxy)phenyl)-6-(1-methylcyclopropoxy)-9-((4-methylpyridin-2-yl)methyl)-9H-purine], the IC50 is 158 nM.

Still in this assay, the particulars now being: Homo sapiens, DLD-1, first proliferation column (c5); DLD-1 BRCA2-/-; read-out: POLQ PD Prolif Lumin (converted).
`COc1cccc(Cn2c(-c3ccc(CC(N)=O)cc3Cl)nc3c(OC4(C)CC4)ncnc32)c1` [Example T105, 2-(3-chloro-4-(9-(3-methoxybenzyl)-6-(1-methylcyclopropoxy)-9H-purin-8-yl)phenyl)acetamide]: the IC50 was 631 nM.
Still for that read-out and setting: in the case of `COc1ccc(Cn2c(-c3ccc(CC(N)=O)cc3Cl)nc3c(OC4(C)CC4)ncnc32)cc1` [Example T106, 2-(3-chloro-4-(9-(4-methoxybenzyl)-6-(1-methylcyclopropoxy)-9H-purin-8-yl)phenyl)acetamide] it was 631 nM; in that of `Cc1ccnc(Cn2c(-c3ccc(OCCCF)cc3Cl)nc3c(OC4(C)CC4)ncnc32)c1` [Example T108, 8-(2-chloro-4-(3-fluoropropoxy)phenyl)-6-(1-methylcyclopropoxy)-9-((4-methylpyridin-2-yl)methyl)-9H-purine], 126 nM; in that of `CNC(=O)Cc1ccc(-c2nc3c(OC4(C)CC4)ncnc3n2Cc2cc(C)ccn2)c(Cl)c1` [Example T113, 2-(3-chloro-4-(6-(1-methylcyclopropoxy)-9-((4-methylpyridin-2-yl)methyl)-9H-purin-8-yl)phenyl)-N-methylacetamide], 316 nM.
With `CCNC(=O)c1ccc(-c2nc3c(OC4(C)CC4)ncnc3n2Cc2cc(C)ccn2)c(Cl)c1` [Example T114, 3-chloro-N-ethyl-4-(6-(1-methylcyclopropoxy)-9-((4-methylpyridin-2-yl)methyl)-9H-purin-8-yl)benzamide], the IC50 is 316 nM.
On the same count and under the same terms, then `Cc1ccnc(Cn2c(-c3ccc(N4CC(O)C4)cc3Cl)nc3c(OC4(C)CC4)ncnc32)c1` [Example T115, 1-(3-chloro-4-(6-(1-methylcyclopropoxy)-9-((4-methylpyridin-2-yl)methyl)-9H-purin-8-yl)phenyl)azetidin-3-ol], with 200 nM.
On the same count and under the same terms, then `CNC(=O)COc1ccc(-c2nc3c(OC4(C)CC4)ncnc3n2Cc2cc(C)ccn2)c(Cl)c1` [Example T118, 2-(3-chloro-4-(6-(1-methylcyclopropoxy)-9-((4-methylpyridin-2-yl)methyl)-9H-purin-8-yl)phenoxy)-N-methylacetamide], with 251 nM; and `CNC(=O)COc1ccc(Cl)c(-c2nc3c(OC4(C)CC4)ncnc3n2Cc2cc(C)ccn2)c1` [Example T122, 2-(4-chloro-3-(6-(1-methylcyclopropoxy)-9-((4-methylpyridin-2-yl)methyl)-9H-purin-8-yl)phenoxy)-N-methylacetamide], with 6310 nM.
Take `Cc1ccnc(Cn2c(-c3ccc(OCCCO)cc3Cl)nc3c(OC4(C)CC4)ncnc32)c1` [Example T124, 3-(3-chloro-4-(6-(1-methylcyclopropoxy)-9-((4-methylpyridin-2-yl)methyl)-9H-purin-8-yl)phenoxy)propan-1-ol]: the IC50 was 79.4 nM.
Still for that read-out and setting: then `COCCOc1ccc(-c2nc3c(OC4(C)CC4)ncnc3n2Cc2cc(C)ccn2)c(Cl)c1` [Example T125, 8-(2-chloro-4-(2-methoxyethoxy)phenyl)-6-(1-methylcyclopropoxy)-9-((4-methylpyridin-2-yl)methyl)-9H-purine], with 100 nM; and `Cc1ccnc(Cn2c(-c3ccc(NC(=O)N(C)C)cc3Cl)nc3c(OC4(C)CC4)ncnc32)c1` [Example T130, 3-(3-chloro-4-(6-(1-methylcyclopropoxy)-9-((4-methylpyridin-2-yl)methyl)-9H-purin-8-yl)phenyl)-1,1-dimethylurea], with 501 nM; and `CNC(=O)CNc1ccc(-c2nc3c(OC4(C)CC4)ncnc3n2Cc2cc(C)ccn2)c(Cl)c1` [Example T131, 2-((3-chloro-4-(6-(1-methylcyclopropoxy)-9-((4-methylpyridin-2-yl)methyl)-9H-purin-8-yl)phenyl)amino)-N-methylacetamide], with 794 nM.
In the case of `Cc1ccnc(Cn2c(-c3ccc(OCCNC(N)=O)cc3Cl)nc3c(OC4(C)CC4)ncnc32)c1` [Example T133, 1-(2-(3-chloro-4-(6-(1-methylcyclopropoxy)-9-((4-methylpyridin-2-yl)methyl)-9H-purin-8-yl)phenoxy)ethyl)urea], the IC50 was 251 nM.
Turning to `Cc1cnc(Cn2c(-c3ccc(OCCN4CC(O)C4)cc3Cl)nc3c(OC4(C)CC4)ncnc32)s1` [Example T141, 1-(2-(3-chloro-4-(6-(1-methylcyclopropoxy)-9-((5-methylthiazol-2-yl)methyl)-9H-purin-8-yl)phenoxy)ethyl)azetidin-3-ol], the IC50 was 501 nM.
Same read-out and setting: in the case of `Cc1ccnc(Cn2c(-c3ccc(CCNS(C)(=O)=O)cc3Cl)nc3c(OC4(C)CC4)ncnc32)c1` [Example T143, N-(3-chloro-4-(6-(1-methylcyclopropoxy)-9-((4-methylpyridin-2-yl)methyl)-9H-purin-8-yl)phenethyl)methanesulfonamide] it was 398 nM; in that of `Cc1ccnc(Cn2c(-c3ccc(OCCNS(C)(=O)=O)cc3Cl)nc3c(OC4(C)CC4)ncnc32)c1` [Example T144, N-(2-(3-chloro-4-(6-(1-methylcyclopropoxy)-9-((4-methylpyridin-2-yl)methyl)-9H-purin-8-yl)phenoxy)ethyl)methanesulfonamide], 158 nM; in that of `C#CCNC(=O)c1ccc(-c2nc3c(OC4(C)CC4)ncnc3n2Cc2cc(C)ccn2)c(Cl)c1` [Example T152, 3-chloro-4-(6-(1-methylcyclopropoxy)-9-((4-methylpyridin-2-yl)methyl)-9H-purin-8-yl)-N-(prop-2-yn-1-yl)benzamide], 398 nM.
